# Patent US6737383B1, “Herbicidal oxadiazolidines” (priority 1999, dated 2004)
# Assays:
# [1] = tested on: Johnson grass; assay: Test D Johnson grass; assay type: in vivo, Sorghum halepense; details: Rate 500 g/ha; Preemergence; 0 to 100 scale
# Method in brief: (§1)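 Each weed species is planted in its own pot or compartment; preemergence doses go on the sandy loam surface within a day. The formulation is a surfactant-containing, non-phytotoxic solvent blend. Ratings come from visual comparison with untreated controls 14 to 21 days later, where 100 means complete control.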
# [2] = tested on: common pursiane; assay: Test D common purslane; assay type: in vivo, Portulaca oleracea
# Method in brief: as §1
# [3] = tested on: surinam grass; assay: Test D surinam grass; assay type: in vivo, Brachiaria decumbens; details: Rate 500 g/ha; Preemergence; 0 to 100 scale
# From the text: (§2) Seeds, tubers, or plant parts of Alexandergrass (Brachiaria plantaginea), bermuda-grass (Cynodon dactylon), common pursiane (Portulaca oleracea), common ragweed (Ambrosia elatior), common groundsel (Senecio vulgaris), dallisgrass (Paspalum dilatatum), goosegrass (Eleusine indica), guineagrass (Panicum maximum), itchgrass (Rottboellia exaltata), Johnson grass (Sorghum halepense), large crabgrass (Digitaria sanguinalis), pitted morningglory (Ipomoea lacunosa), purple nutsedge (Cyperus rotundus), sandbur (Cenchrus echinatus), sourgrass (Trichachne insularis), Spanishneedles (Bidens bipinnata), surinam grass (Brachiaria decumbens) and tall mallow (Malva sylvestris) were planted into greenhouse pots of flats containing greenhouse planting medium. Plant species were grown in separate pots or individual compartments. Preemergence applications were made within one day of planting the seed or plant part.
# (§3) Test chemicals were formulated in a non-phytotoxic solvent mixture which included a surfactant and applied preemergence to the surface of the pot containing seeds in a sandy loam soil. Untreated control pots and treated pots were placed in the greenhouse for growth and visually evaluated for injury 14 to 21 days after herbicide application. Plant response ratings, summarized in Table C, are based on a 0 to 100 scale where 0 is no injury and 100 is complete control. A dash (−) response means no test result.
# [4] = tested on: bermuda-grass; assay: Test D bermudagrass; assay type: in vivo, Cynodon dactylon; details: Rate 500 g/ha; Preemergence; 0 to 100 scale
# Method in brief: as §1
# [5] = tested on: Spanishneedles; assay: Test D Spanishneedles; assay type: in vivo, Bidens bipinnata; details: Rate 500 g/ha; Preemergence; 0 to 100 scale
# From the text: as §2, §3
# [6] = tested on: itchgrass; assay: Test D itchgrass; assay type: in vivo, Rottboellia exaltata; details: Rate 500 g/ha; Preemergence; 0 to 100 scale
# From the text: as §2, §3
# [7] = tested on: common ragweed; assay: Test D common ragweed; assay type: in vivo, Ambrosia elatior; details: Rate 500 g/ha; Preemergence; 0 to 100 scale
# From the text: as §2, §3
# [8] = tested on: Alexandergrass; assay: Test D Alexandergrass; assay type: in vivo, Brachiaria plantaginea; details: Rate 500 g/ha; Preemergence; 0 to 100 scale
# Method in brief: as §1
# [9] = tested on: tall mallow; assay: Test D tall mallow; assay type: in vivo, Malva sylvestris; details: Rate 500 g/ha; Preemergence; 0 to 100 scale
# Method in brief: as §1
# [10] = tested on: Green foxtail; assay: Test D green foxtail; assay type: in vivo; details: Rate 500 g/ha, Preemergence; 0 to 100 scale
# From the text: as §2, §3
# [11] = tested on: sandbur; assay: Test D sandbur; assay type: in vivo, Cenchrus echinatus; details: Rate 500 g/ha; Preemergence; 0 to 100 scale
# From the text: as §2, §3
# [12] = tested on: pitted morningglory; assay: Test D pitted morningglory; assay type: in vivo, Ipomoea lacunosa; details: Rate 500 g/ha; Preemergence; 0 to 100 scale
# Method in brief: as §1
# [13] = tested on: goosegrass; assay: Test D goosegrass; assay type: in vivo, Eleusine indica; details: Rate 500 g/ha; Preemergence; 0 to 100 scale
# Method in brief: as §1
# [14] = tested on: dallisgrass; assay: Test D dallisgrass; assay type: in vivo, Paspalum dilatatum; details: Rate 500 g/ha; Preemergence; 0 to 100 scale
# Method in brief: as §1
# [15] = tested on: large crabgrass; assay: Test D large crabgrass; assay type: in vivo, Digitaria sanguinalis; details: Rate 500 g/ha; Preemergence; 0 to 100 scale
# Method in brief: as §1
# [16] = tested on: guineagrass; assay: Test D guineagrass; assay type: in vivo, Panicum maximum; details: Rate 500 g/ha; Preemergence; 0 to 100 scale
# From the text: as §2, §3
smiles,measurement,setting,value
Cc1ccccc1-n1c(=O)on(C(=O)N(c2ccccc2)C(C)C)c1=O [Compound 36],Plant response rating Johnsongrass,[1],0
same,"Plant response rating, C. purslane","[2]; Rate 500 g/ha, Preemergence; 0 to 100 scale",10
same,"Plant response rating, C. purslane",[2]; Rate 500 g/ha; Preemergence; 0 to 100 scale,0
same,Plant response rating Surinam grass,[3],85
same,"Plant response rating, Bermudagrass",[4],100
same,"Plant response rating, Spanishneedles",[5],10
same,"Plant response rating, Itchgrass",[6],80
same,"Plant response rating, C. ragweed",[7],10
same,"Plant response rating, Alexandergrass",[8],98
same,"Plant response rating, Tall Mallow",[9],0
same,"Plant response rating, Green foxtail",[10],100
same,"Plant response rating, Sandbur",[11],100
same,"Plant response rating, P. morninglory",[12],0
same,"Plant response rating, Goosegrass",[13],100
same,"Plant response rating, Dallisgrass",[14],100
same,Plant response rating Large crabgrass,[15],100
same,"Plant response rating, Guineagrass",[16],100
